In brackets after ≈: the same amount, converted by molar mass. Ends that are not written are not given here. Peptide text beside a SMILES is read from it.
Legend:
A. baumannii 5075 = details: for Bacterial MIC: Week 2 (12/14/2023)
P. aeruginosa PA01 (Si) = assay: microbe, parasite or virus in culture; format: cell-based; details: Si
Source text: Supplement 41522_2025_837_MOESM13_ESM.xlsx, sheet "Table_S13_ESKAPEE-MIC" | column: Bacterial MIC (µg/mL)

A. baumannii ATCC 19606 = assay: microbe, parasite or virus in culture; details: for Bacterial MIC: ATCC 19606, 20 h
Outline: (§1)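 Broth microdilution in cation-adjusted Mueller-Hinton broth, final inoculum 1 × 10⁵ CFU/mL, peptides 0.25 to 128 μg/mL in 0.02% TFA + 0.04% BSA. Duplicates incubated 20 h at 37 °C without agitation. MIC read visually per CLSI with image-analysis support.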

E. cloacae ATCC 35549 = assay: microbe, parasite or virus in culture; details: for Bacterial MIC: ATCC 35549, 20 h
Outline: as §1

[1] = system: K. pneumoniae ATCC 700603; assay: microbe, parasite or virus in culture; details: K. pneumoniae 700603; for Bacterial MIC: Week 2 (12/14/2023)
Outline: as §1

E. coli ATCC 43888 = assay: microbe, parasite or virus in culture; details: ATCC 43888, 20 h
Outline: as §1

P. aeruginosa ATCC 27853 = assay: microbe, parasite or virus in culture; details: for Bacterial MIC: ATCC 27853, 20 h
Outline: as §1

K. pneumoniae ATCC 13883 = assay: microbe, parasite or virus in culture; details: for Bacterial MIC: ATCC 13883, 20 h
Outline: as §1

A. baumannii ATCC 17978 = assay: microbe, parasite or virus in culture; details: for Bacterial MIC: ATCC 17978, 20 h
Outline: as §1

S. aureus ATCC 43300 = assay: microbe, parasite or virus in culture; details: S. aureus 43300; for Bacterial MIC: Week 2 (12/14/2023)
Outline: as §1

E. coli ATCC 35218 = assay: microbe, parasite or virus in culture
Outline: as §1

P. aeruginosa MRSN 5519 = assay: microbe, parasite or virus in culture; details: for Bacterial MIC: MRSN 5519, 20 h
Outline: as §1

E. faecium ATCC 19434 = assay: microbe, parasite or virus in culture; details: for Bacterial MIC: ATCC 19434, 20 h
Outline: as §1

S. aureus ATCC 25923 = assay: microbe, parasite or virus in culture; details: for Bacterial MIC: ATCC 25923, 20 h
Outline: as §1

E. faecium ATCC 49224 = assay: microbe, parasite or virus in culture; details: for Bacterial MIC: ATCC 49224, 20 h
Outline: as §1

E. cloacae ATCC 13047 = assay: microbe, parasite or virus in culture; details: for Bacterial MIC: ATCC 13047, 20 h
Outline: as §1

[2] = set-up: method as in Biomatik (vendor); details: 1.0 mg peptide in 1.0 ml solvent; peptides synthesized by Biomatik; ref Biomatik (vendor); cited from earlier work
[3] = system: Batrachochytrium dendrobatidis Bd-GPL strain JEL404; details: synthesized peptide 62.5 μg/mL; slope of growth; positive = inhibition, negative = no inhibition
Protocol: Bd-peptide challenge assays were conducted with the crude peptides extracted from the salamander skin secretions and with the 20 synthesized peptides. We followed methods by Pereria et al.[49] to conduct assays with the crude peptides using Bd-GPL strain JEL404 at 1 × 10^6 zoospores/mL. Briefly, skin peptide samples were pooled together based on species-site-injection (Table 1). Skin peptides samples were serially diluted 2-fold in MilliQ (Ultrapure Type 1) water and assayed at a concentration of 2.35–75 μg/mL based on starting peptide concentration available. For synthesized peptides, we conducted assays from 15.6 to 500 μg/ml. In both assays, we quantified percent inhibition of each well using slope of growth[90] in which positive values indicate inhibition and negative values indicate no inhibition.

K. pneumoniae 4640 = details: for Bacterial MIC: 4640, 20 h
P. aeruginosa PA01 = assay: microbe, parasite or virus in culture; format: cell-based; details: for Bacterial MIC: P. aeruginosa 15692 (PAO1), Week 2 (12/14/2023)
Protocol: Antimicrobial susceptibility testing of the 20 synthesized peptides against 17 bacterial strains of clinical relevance in the ESKAPEE panel was conducted using minimum inhibitory concentration (MIC) assays following the broth microdilution method outlined by Parker et al.[91]. The ESKAPEE panel is comprised of fourteen American Type Culture Collection (ATCC) strains and three Multidrug Resistant Organism Repository and Surveillance Network (MRSN) bacterial strains. These strains represent at least one drug-susceptible strain and one drug-resistant strain for each bacterium to assess drug efficacy across various resistance mechanisms. This panel is comprised of the following bacterial species and strains: E. faecium (ATCC 19434, ATCC 49224), S. aureus (ATCC 25923, ATCC 43300), K. pneumoniae (ATCC 700603, ATCC 13883, MRSN 1320), A. baumannii (ATCC 17978, ATCC 19606, MRSN 959), P. aeruginosa (ATCC 15692, ATCC 27853, MRSN 5519), E. cloacae (ATCC 13047, ATCC 35549), and E. coli (ATCC 35218, ATCC 43888). Bacteria were grown in cation-adjusted Mueller-Hinton broth (CAMHB) to achieve a final inoculum of 1 × 10⁵ CFU/mL. CAMHB is selected for its batch-to-batch reproducibility, low levels of antimicrobial inhibitors, and ability to support the growth of most bacterial pathogens.
Briefly, lyophilized peptides were dissolved in 0.2% TFA + 0.4% BSA in water to 2.56 mg/mL, ultrasonicated for 20 min, diluted 10-fold into CAMHB, and then serially diluted 2-fold in 0.02% TFA + 0.04% BSA in CAMHB and assayed at a concentration of 0.25 to 128 μg/mL. Assays were set up using the Tecan Freedom EVO liquid handling robot and software (Tecan, Switzerland) with 50 μL of bacterial inoculum and 50 μL of peptide transferred into round-bottom 96-well microtiter plates. Each plate assay was performed in duplicate and incubated at 37 °C for 20 h without agitation. Bacterial growth was assessed using the BIOMIC V3 Image Analysis system (Giles Scientific, USA) and the MIC values were determined visually according to the Clinical and Laboratory Standards Institute (CLSI) guidelines.

[4] = E. coli 35218, Week 2 (12/14/2023)
[5] = CAMHB, 1 × 10⁵ CFU/mL, 0.25 to 128 μg/mL, 37 °C 20 h, duplicate, read visually (CLSI)

Row | Compound | Bacterial MIC (A. baumannii 5075) [µg/mL] | Bacterial MIC (P. aeruginosa PA01 (Si)) [µg/mL] | Bacterial MIC (A. baumannii ATCC 19606) [µg/mL] | Bacterial MIC (E. cloacae ATCC 35549) [µg/mL] | Bacterial MIC [1] [µg/mL] | Bacterial MIC (E. coli ATCC 43888) [µg/mL] | Bacterial MIC (P. aeruginosa ATCC 27853) [µg/mL] | Bacterial MIC (K. pneumoniae ATCC 13883) [µg/mL] | Bacterial MIC (A. baumannii ATCC 17978) [µg/mL] | Bacterial MIC (S. aureus ATCC 43300) [µg/mL] | Bacterial MIC (E. coli ATCC 35218; [4]) [µg/mL] | Bacterial MIC (P. aeruginosa MRSN 5519) [µg/mL] | Bacterial MIC (E. faecium ATCC 19434) [µg/mL] | Bacterial MIC (S. aureus ATCC 25923) [µg/mL] | Bacterial MIC (E. faecium ATCC 49224) [µg/mL] | Bacterial MIC (E. cloacae ATCC 13047) [µg/mL] | Suggest solvent (solubility) [2] | Bacterial MIC (K. pneumoniae 4640) [µg/mL] | Bacterial MIC (P. aeruginosa PA01) [µg/mL] | also measured
1 | SGLRGSL [PrMb-Eb19] | >128.000 | >128.000 | >128.000 | >128.000 | >128.000 | >128.000 | >128.000 | >128.000 | >128.000 | >128.000 | >128.000 | >128.000 | >128.000 | >128.000 | >128.000 | >128.000 | 1.0mg peptide soluble in 1.0ml H2O | >128.000 | >128.000 | Bd inhibition score (percent inhibition), mean [3]: -38.0157%
2 | CC[C@H](C)[C@H](NC(=O)[C@H](CO)NC(=O)[C@H](CO)NC(=O)[C@H](Cc1ccccc1)NC(=O)[C@H](CS)NC(=O)CNC(=O)CNC(=O)[C@H](CCCNC(=N)N)NC(=O)[C@H](CCCNC(=N)N)NC(=O)[C@H](Cc1ccc(O)cc1)NC(=O)[C@H](CS)NC(=O)[C@H](CC(N)=O)NC(=O)[C@H](Cc1c[nH]c2ccccc12)NC(=O)[C@@H]1CCCN1C(=O)[C@H](CCCNC(=N)N)NC(=O)[C@H](C)NC(=O)[C@H](CCCNC(=N)N)NC(=O)[C@H](CCCNC(=N)N)NC(=O)[C@@H](NC(=O)[C@H](CCCNC(=N)N)NC(=O)[C@@H](NC(=O)[C@H](CCCNC(=N)N)NC(=O)[C@H](CCCCN)NC(=O)[C@@H](N)CC(C)C)[C@@H](C)O)C(C)C)C(=O)NCC(=O)N[C@@H](CO)C(=O)N[C@@H](CC(C)C)C(=O)N[C@H](C(=O)N1CCC[C@H]1C(=O)N[C@H](C(=O)O)C(C)C)[C@@H](C)O [Pcin-CATH3] (H-LKRTRVRRARPWNCYRRGGCFSSIGSLTPV-OH; N-terminus and C-terminus assumed) | – | 32 | – | – | – | 64 | – | – | – | – | – | – | – | – | – | – | 1.0mg peptide soluble in 1.0ml H2O | – | – | MIC (A. baumannii 5075; [5]): 16 µg/mL (≈ 4.58 µM); MIC (A. baumannii ATCC 19606; A. baumannii 19606, CAMHB, 1 × 10⁵ CFU/mL, 0.25 to 128 μg/mL, 37 °C 20 h, duplicate, read visually (CLSI)): 64 µg/mL (≈ 18.3 µM); MIC (E. cloacae ATCC 35549; E. cloacae 35549, CAMHB, 1 × 10⁵ CFU/mL, 0.25 to 128 μg/mL, 37 °C 20 h, duplicate, read visually (CLSI)): >128 µg/mL; MIC [1, 5]: >128 µg/mL; MIC (P. aeruginosa ATCC 27853; P. aeruginosa 27853, CAMHB, 1 × 10⁵ CFU/mL, 0.25 to 128 μg/mL, 37 °C 20 h, duplicate, read visually (CLSI)): >128 µg/mL; MIC (K. pneumoniae ATCC 13883; K. pneumoniae 13883, CAMHB, 1 × 10⁵ CFU/mL, 0.25 to 128 μg/mL, 37 °C 20 h, duplicate, read visually (CLSI)): >128 µg/mL; MIC (A. baumannii ATCC 17978; A. baumannii 17978, CAMHB, 1 × 10⁵ CFU/mL, 0.25 to 128 μg/mL, 37 °C 20 h, duplicate, read visually (CLSI)): 64 µg/mL (≈ 18.3 µM); MIC (S. aureus ATCC 43300; [5]): >128 µg/mL; Bacterial MIC (E. coli ATCC 35218; ATCC 35218, 20 h): 128 µg/mL; MIC (E. coli ATCC 35218; ATCC 35218, 20 h): >128 µg/mL; MIC (P. aeruginosa MRSN 5519; P. aeruginosa 5519, CAMHB, 1 × 10⁵ CFU/mL, 0.25 to 128 μg/mL, 37 °C 20 h, duplicate, read visually (CLSI)): >128 µg/mL; MIC (E. faecium ATCC 19434; E. faecium 19434, CAMHB, 1 × 10⁵ CFU/mL, 0.25 to 128 μg/mL, 37 °C 20 h, duplicate, read visually (CLSI)): >128 µg/mL; MIC (S. aureus ATCC 25923; S. aureus 25923, CAMHB, 1 × 10⁵ CFU/mL, 0.25 to 128 μg/mL, 37 °C 20 h, duplicate, read visually (CLSI)): >128 µg/mL; MIC (E. faecium ATCC 49224; E. faecium 49224, CAMHB, 1 × 10⁵ CFU/mL, 0.25 to 128 μg/mL, 37 °C 20 h, duplicate, read visually (CLSI)): >128 µg/mL; MIC (E. cloacae ATCC 13047; E. cloacae 13047, CAMHB, 1 × 10⁵ CFU/mL, 0.25 to 128 μg/mL, 37 °C 20 h, duplicate, read visually (CLSI)): >128 µg/mL; MIC (K. pneumoniae 4640; K. pneumoniae 4640, CAMHB, 1 × 10⁵ CFU/mL, 0.25 to 128 μg/mL, 37 °C 20 h, duplicate, read visually (CLSI)): >128 µg/mL; MIC (P. aeruginosa PA01; 20 h): 32 µg/mL (≈ 9.16 µM)
3 | KRAGYARMIR [PrAd-Eb18] | >128.000 | >128.000 | >128.000 | >128.000 | >128.000 | >128.000 | >128.000 | >128.000 | >128.000 | >128.000 | >128.000 | >128.000 | >128.000 | >128.000 | >128.000 | >128.000 | 1.0mg peptide soluble in 1.0ml H2O | >128.000 | >128.000 | –
4 | NANGASNANGASYANGASN [TrPr-Pc34] | >128.000 | >128.000 | >128.000 | >128.000 | >128.000 | >128.000 | >128.000 | >128.000 | >128.000 | >128.000 | >128.000 | >128.000 | >128.000 | >128.000 | >128.000 | >128.000 | 1.0mg peptide soluble in 1.0ml H2O | >128.000 | >128.000 | –
